For 35 compounds, Ki and minimal effective dose results are on record in patent EP1359152B1, “Diazabicyclic derivatives as nicotinic acetylcholine receptor ligands” (ABBOTT LABORATORIES, priority 1999, dated 2000).

Where a name gives a salt, the structure may show the parent alone.

In the first test the target is T1, neuronal nicotinic acetylcholine receptors (Rattus norvegicus, UniProt P09483+P12390).
T1 construct: crude synaptic membrane preparations from whole rat brain; from tissue; host or cells: whole rat brain, crude synaptic membranes
T1 sequence (P09483 31-630): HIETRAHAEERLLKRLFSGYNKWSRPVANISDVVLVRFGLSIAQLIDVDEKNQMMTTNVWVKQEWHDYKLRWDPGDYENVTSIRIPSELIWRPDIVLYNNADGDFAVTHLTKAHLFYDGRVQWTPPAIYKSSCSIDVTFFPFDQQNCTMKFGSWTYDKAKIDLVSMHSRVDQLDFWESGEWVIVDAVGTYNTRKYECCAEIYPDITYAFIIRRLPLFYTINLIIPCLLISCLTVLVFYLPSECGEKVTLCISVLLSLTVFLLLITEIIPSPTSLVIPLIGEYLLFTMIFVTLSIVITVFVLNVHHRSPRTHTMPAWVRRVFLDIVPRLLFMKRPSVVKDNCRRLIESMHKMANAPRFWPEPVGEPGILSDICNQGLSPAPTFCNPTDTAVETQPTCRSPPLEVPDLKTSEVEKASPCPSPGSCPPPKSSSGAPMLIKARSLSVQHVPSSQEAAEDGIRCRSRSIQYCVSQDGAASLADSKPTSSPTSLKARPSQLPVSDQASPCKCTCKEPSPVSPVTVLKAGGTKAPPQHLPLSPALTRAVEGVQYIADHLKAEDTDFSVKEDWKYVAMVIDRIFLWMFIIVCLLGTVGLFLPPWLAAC
T1 sequence (P12390 25-500): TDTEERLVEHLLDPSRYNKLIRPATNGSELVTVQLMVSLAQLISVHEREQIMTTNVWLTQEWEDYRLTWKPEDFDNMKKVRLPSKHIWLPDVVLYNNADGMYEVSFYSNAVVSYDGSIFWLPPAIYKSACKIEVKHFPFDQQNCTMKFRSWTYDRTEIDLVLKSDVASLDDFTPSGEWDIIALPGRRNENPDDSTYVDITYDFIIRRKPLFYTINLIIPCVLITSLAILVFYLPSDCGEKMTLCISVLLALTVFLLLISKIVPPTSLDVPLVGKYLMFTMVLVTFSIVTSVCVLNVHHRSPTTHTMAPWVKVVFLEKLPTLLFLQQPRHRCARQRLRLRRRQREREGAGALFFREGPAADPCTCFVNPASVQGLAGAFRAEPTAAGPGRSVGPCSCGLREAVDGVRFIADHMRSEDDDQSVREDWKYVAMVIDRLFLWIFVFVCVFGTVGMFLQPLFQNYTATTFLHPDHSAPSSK
The experiment in a line: [3H]-cytisine binding to neuronal nicotinic acetylcholine receptors, crude synaptic membranes from whole rat brain.
Conditions: not given
The protocol: The In Vitro protocols for determination of nicotinic acetylcholine channel receptor binding potencies of ligands were determined as follows.
Washed membranes were stored at-80 °C prior to use. Frozen aliquots were slowly thawed and resuspended in 20 volumes of buffer (containing: 120 mM NaCl, 5 mM KCI, 2 mM MgCl2, 2 mM CaCl2 and 50 mM Tris-Cl, pH 7.4 @4 °C). After centrifuging at 20,000x g for 15 minutes, the pellets were resuspended in 30 volumes of buffer.
The test compounds were dissolved in water to make 10 mM stock solutions. Each solution was then diluted (1:100) with buffer (as above) and further taken through seven serial log dilutions to produce test solutions from 10^-5 to 10^-11 M.
Samples were incubated for 60 minutes at 4 °C, then rapidly filtered through Whatman GF/B filters presoaked in 0.5% polyethyleneimine using 3 x 4 mL of ice-cold buffer. The filters are counted in 4 mL of Ecolume® (ICN). Nonspecific binding was determined in the presence of 10 µM (-)-nicotine and values were expressed as a percentage of total binding. IC50 values were determined with the RS-1 (BBN) nonlinear least squares curve-fitting program and IC50 values were converted to Ki values using the Cheng and Prusoff correction (Ki=IC50/(1+[ligand]/Kd of ligand).
`c1cncc(CN2C[C@H]3C[C@@H]2CN3)c1` [Example 20, (1R,4R)-2-(3-pyridinylmethyl)-2,5-diazabicyclo[2.2.1]heptane trihydrobromide]: the Ki (in general, a measure of affinity in units of concentration, obtained from inhibition or displacement) is 52 nM.

As for `Oc1cncc(N2C[C@H]3C[C@@H]2CN3)c1` [Example 39, (1R,4R)-2-(5-hydroxy-3-pyridinyl)-2,5-diazabicyclo[2.2.1]heptane 4-methylbenzenesulfonate], the Ki stood at 0.04 nM.

The compound `c1cnc2cc(N3C[C@H]4C[C@@H]3CN4)sc2c1` [Example 55, (1R,4R)-2-(thieno[3,2-b]pyridin-2-yl)-2,5-diazabicyclo[2.2.1]heptane acetate] had a Ki of 0.84 nM.

For the compound `Cc1ccc(N2C[C@@H]3C[C@H]2CN3)cn1` [Example 23, (1S,4S)-2-(6-methyl-3-pyridinyl)-2,5-diazabicyclo[2.2.1]heptane 4-methylbenzenesulfonate], the Ki stood at 1.6 nM. With `Clc1nnc(N2C[C@@H]3C[C@H]2CN3)c2ccccc12` [Example 7, (1S,4S)-2-(4-chloro-1-phthalazinyl)-2,5-diazabicyclo[2.2.1]heptane bis(4-methylbenzenesulfonate)], the affinity corresponds to a Ki of 1900 nM. With `Fc1ccc(N2C[C@@H]3C[C@H]2CN3)cn1` [Example 30, (1S,4S)-2-(6-fluoro-3-pyridinyl)-2,5-diazabicyclo[2.2.1]heptane bis(4-methylbenzenesulfonate)], the Ki is 0.17 nM. For the compound `Clc1ccc(N2C[C@@H]3C[C@H]2CN3)nc1` [Example 18, (1S,4S)-2-(5-chloro-2-pyridinyl)-2,5-diazabicyclo[2.2.1]heptane dihydrochloride, reference compound], the affinity corresponds to a Ki of 400 nM. In the case of `Nc1ccc(N2C[C@@H]3C[C@H]2CN3)cn1` [Example 3, (1S,4S)-2-(6-amino-3-pyridinyl)-2,5-diazabicyclo[2.2.1]heptane trihydrochloride], the Ki was determined as 20 nM.

For `NC(=O)c1cncc(N2C[C@@H]3C[C@H]2CN3)c1` [Example 38, (1S,4S)-2-(5-aminocarbonyl-3-pyridinyl)-2,5-diazabicyclo[2.2.1]heptane bis(4-methylbenzenesulfonate)], affinity was put at a Ki of 24 nM. On to `c1cncc(N2CC3CCC(C2)N3)c1` [Example 13, 3-(3-pyridinyl)-3,8-diazabicyclo[3.2.1]octane dihydrochloride], for which the affinity corresponds to a Ki of 0.41 nM. As for `c1cncc(N2C[C@@H]3C[C@H]2CN3)c1` [Example 17, (1S,4S)-2-(3-pyridinyl)-2,5-diazabicyclo[2.2.1]heptane 4-methylbenzenesulfonate], affinity was put at a Ki of 0.063 nM.

On to `Oc1cc(N2C[C@@H]3C[C@H]2CN3)cnc1Cl` [Example 45, (1S,4S)-2-(6-chloro-5-hydroxy-3-pyridinyl)-2,5-diazabicyclo[2.2.1]heptane 4-methylbenzenesulfonate], for which the affinity corresponds to a Ki of 1.6 nM. `CN1C[C@@H]2C[C@H]1CN2c1nnc(Cl)c2ccccc12` [Example 8, (1S,4S)-2-(4-chloro-1-phthalazinyl)-5-methyl-2,5-diazabicyclo[2.2.1]heptane bis(4-methylbenzenesulfonate)] yielded a Ki of 2600 nM. `c1cnnc(N2CC3CCC(C2)N3)c1` [Example 14, 3-(3-pyridazinyl)-3,8-diazabicyclo[3.2.1]octane dihydrochloride] yielded a Ki of 11 nM. In the case of `Clc1ccc(N2CC3CC2CCN3)cn1` (stereo not shown) [Example 49, 6-(6-chloro-3-pyridinyl)-2,6-diazabicyclo[3.2.1]octane bis(4-methylbenzenesulfonate)], the inhibition constant (Ki) was 2.7 nM.

On to `c1ncc(N2C[C@@H]3C[C@H]2CN3)cn1` [Example 52, (1S,4S)-2-(5-pyrimidinyl)-2,5-diazabicyclo[2.2.1]heptane 4-methylbenzenesulfonate], for which the Ki came out at 1 nM. Consider `COC(=O)c1cc(N2C[C@@H]3C[C@H]2CN3)nnc1Cl` [Example 9, (1S,4S)-2-(6-chloro-5-methoxycarbonyl-3-pyridazinyl)-2,5-diazabicyclo[2.2.1]heptane bis(4-methylbenzenesulfonate)], for which the Ki is more than 10000 nM. Still for that read-out and setting: to `COc1cc(N2C[C@H]3C[C@@H]2CN3)cnc1Cl` [Example 51, (1R,4R)-2-(6-chloro-5-methoxy-3-pyridinyl)-2,5-diazabicyclo[2.2.1]heptane 4-methylbenzenesulfonate] belongs 0.1 nM; to `N#Cc1cncc(N2C[C@@H]3C[C@H]2CN3)c1` [Example 32, (1S,4S)-2-(5-cyano-3-pyridinyl)-2,5-diazabicyclo[2.2.1]heptane 4-methylbenzenesulfonate], 1.6 nM; to `c1ccc(COc2cncc(N3C[C@@H]4C[C@H]3CN4)c2)cc1` [Example 21, (1S,4S)-2-[5-(benzyloxy)-3-pyridinyl]-2,5-diazabicyclo[2.2.1]heptane 4-methylbenzenesulfonate], 0.33 nM. On to `c1cncc(N2CC3CNCC2C3)c1` (stereo not shown) [Example 59, 6-(3-pyridinyl)-3,6-diazabicyclo[3.2.1]octane], for which the affinity, expressed as Ki, was 2.2 nM. The compound `Cc1cc(N2C[C@@H]3C[C@H]2CN3)sn1` [Example 54, (1S,4S)-2-(3-methyl-5-isothiazolyl)-2.5-diazabicyclo[2.2.1]heptane acetate] returned a Ki of 5 nM.

In turn, `Cc1cc(N2C[C@@H]3C[C@H]2CN3C)nnc1Cl` [Example 6, (1S,4S)-2-(6-chloro-5-methyl-3-pyridazinyl)-5-methyl-2,5-diazabicyclo[2.2.1]heptane bis(4-methylbenzenesulfonate)] gave a Ki of 22 nM. In turn, `O=[N+]([O-])c1ccc(N2CC3CCC(C2)N3)cn1` [Example 10, 3-(6-nitro-3-pyrdinyl)-3,8-diazabicyclo[3.2.1]octane dihydrochloride] showed a Ki of 37 nM. Take `Clc1ccc(N2CC3CCC(C2)N3)cn1` [Example 12, 3-(6-chloro-3-pyridinyl)-3,8-diazabicyclo[3.2.1]octane dihydrochloride]: the affinity, expressed as Ki, was 93 nM. As to `NCc1cncc(N2C[C@@H]3C[C@H]2CN3)c1` [Example 34, (1S,4S)-2-(5-aminomethyl-3-pyridinyl)-2,5-diazabicyclo[2.2.1]heptane trihydrochloride], the Ki came to 140 nM. For the compound `c1ccc2ncc(N3C[C@@H]4C[C@H]3CN4)cc2c1` [Example 53, (1S,4S)-2-(3-quinolinyl)-2,5-diazabicyclo[2.2.1]heptane acetate], the Ki was 17 nM.

As to `Clc1ccc(N2C3CCNCC2CC3)cn1` (stereo not shown) [Example 56, 9-(6-chloro-3-pyridinyl)-3,9-diazabicyclo[4.2.1]nonane fumarate], the Ki was 0.21 nM.

`Nc1ccc(N2CC3CCC(C2)N3)cn1` [Example 11, 3-(6-amino-3-pyridinyl)-3,8-diazabicyclo[3.2.1]octane trihydrochloride] showed a Ki of 37 nM.

The compound `COc1cncc(N2C[C@@H]3C[C@H]2CN3)c1` [Example 43, (1S,4S)-2-(5-methoxy-3-pyridinyl)-2,5-diazabicyclo[2.2.1]heptane bis(4-methylbenzenesulfonate)] showed a Ki of 0.57 nM.

`c1cnnc(N2C[C@@H]3C[C@H]2CN3)c1` [Example 29, (1S,4S)-2-(3-pyridazinyl)-2,5-diazabicyclo[2.2.1]heptane 4-methylbenzenesulfonate] came in with a Ki of 37 nM.

The same test, now with this note: [3H]-CYT 1.25 nM, 60 minutes at 4 °C, whole rat brain membranes; Ki from IC50 by Cheng and Prusoff correction; read-out: Average Ki.
For the compound `c1cncc(N2CC3CCC2CN3)c1` (stereo not shown) [Example 42, 2-(3-pyridinyl)-2.5-diazabicyclo[2.2.2]octane dihydrochloride], the Ki came to 0.02 nM. For `O=[N+]([O-])c1ccc(N2CC3CC2CN3)cn1` [Example 28, (1S,4S)-2-(6-nitro-3-pyridinyl)-2.5-diazabicyclo[2.2.1]heptane], the Ki was determined as 109 nM. `NC(=O)c1cncc(N2CC3CC2CN3)c1` [Example 50, (1R,4R)-2-(5-aminocarbonyl-3-pyridinyl)-2.5-diazabicvclo[2.2.1]heptane bis(4-methylbenzenesulfonate)]: the Ki stood at 0.83 nM.

The subject of another test is mice. The experiment in a line: Mouse hot plate paradigm (analgesic effect, latency until tenth jump). In kind it is in vivo. To be noted: ip, 0.5 h, minimally effective dose among doses tested, intraperitoneal, dosed 30 minutes prior to testing, hot plate 55 °C, cut-off 180 seconds, increase in tenth jump latency relative to control, read-out: (MED). Here is the method:
An in vivo protocol was utilized to determine the effectiveness of nicotinic acetylcholine receptor ligands as analgesic agents in the mouse hot plate paradigm.
Separate groups of mice, (n=8/group) were utilized for each dose group. All drugs were administered by the intraperitoneal route of administration. Test drugs were dissolved in water to make a 6.2 mM stock solution. Animals were dosed with this solution (10 mL/kg body weight) for a 62 micromol/kg dose. Lower doses were administered similarly, following serial dilution of the stock solution in half-log increments. Animals were dosed 30 minutes prior to testing in the hot plate. The hotplate utilized was an automated analgesia monitor (Model #AHP16AN, Omnitech Electronics, Inc. of Columbus, Ohio). The temperature of the hot plate was maintained at 55 °C and a cut-off time of 180 seconds was utilized. Latency until the tenth jump was recorded as the dependent measure. An increase in the tenth jump latency relative to the control was considered an effect.
On to `c1cncc(CN2C[C@H]3C[C@@H]2CN3)c1` [Example 20, (1R,4R)-2-(3-pyridinylmethyl)-2,5-diazabicyclo[2.2.1]heptane trihydrobromide], for which the minimal effective dose turned out to be 62 µmol/kg. Consider `Oc1cncc(N2C[C@H]3C[C@@H]2CN3)c1` [Example 39, (1R,4R)-2-(5-hydroxy-3-pyridinyl)-2,5-diazabicyclo[2.2.1]heptane 4-methylbenzenesulfonate], for which the minimal effective dose is 62 µmol/kg. `Cc1ccc(N2C[C@@H]3C[C@H]2CN3)cn1` [Example 23, (1S,4S)-2-(6-methyl-3-pyridinyl)-2,5-diazabicyclo[2.2.1]heptane 4-methylbenzenesulfonate]: the minimal effective dose was determined as 62 µmol/kg. For the compound `Clc1ccc(N2C[C@H]3C[C@@H]2CN3)nn1` [Example 16, (1R,4R)-2-(6-chloro-3-pyridazinyl)-2,5-diazabicyclo[2.2.1]heptane bis(4-methylbenzenesulfonate)], the minimal effective dose stood at 6.2 µmol/kg.

In the case of `Fc1ccc(N2C[C@@H]3C[C@H]2CN3)cn1` [Example 30, (1S,4S)-2-(6-fluoro-3-pyridinyl)-2,5-diazabicyclo[2.2.1]heptane bis(4-methylbenzenesulfonate)], the minimal effective dose turned out to be 1.9 µmol/kg. Still for that read-out and setting: to `NC(=O)c1cncc(N2C[C@@H]3C[C@H]2CN3)c1` [Example 38, (1S,4S)-2-(5-aminocarbonyl-3-pyridinyl)-2,5-diazabicyclo[2.2.1]heptane bis(4-methylbenzenesulfonate)] belongs 19 µmol/kg.
